According to patent US20230293535A1, “ERBB/BTK INHIBITORS” (Dizal (Jiangsu) Pharmaceutical Co., Ltd., priority 2018, published 2023):
Where a name gives a salt, the structure may show the parent alone. Read-outs that look alike come from different tables or passages of the source.

Assays:
[1] = biological target: T1, human EGFR exon 20 H773_V774insNPH (Homo sapiens, UniProt P00533, INS773NPH); assay: EGFR Exon20 NPH insertion cellular phosphorylation inhibition (MSD pEGFR Y1068/total EGFR); assay type: cell-based; details: Ba/F3 EGFR NPH ins cells, 4 h compound, p-EGFR(Y1068)/total EGFR;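 further: IL3-independent Ba/F3 cells with constitutively phosphorylated EGFR, compound exposure at 37 °C under 5% CO2, electrochemiluminescent MSD measurement of the p-EGFR to total EGFR ratio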
T1 construct: host or cells: Ba/F3
T1 sequence (P00533 with tags, fused parts or gaps INS773NPH): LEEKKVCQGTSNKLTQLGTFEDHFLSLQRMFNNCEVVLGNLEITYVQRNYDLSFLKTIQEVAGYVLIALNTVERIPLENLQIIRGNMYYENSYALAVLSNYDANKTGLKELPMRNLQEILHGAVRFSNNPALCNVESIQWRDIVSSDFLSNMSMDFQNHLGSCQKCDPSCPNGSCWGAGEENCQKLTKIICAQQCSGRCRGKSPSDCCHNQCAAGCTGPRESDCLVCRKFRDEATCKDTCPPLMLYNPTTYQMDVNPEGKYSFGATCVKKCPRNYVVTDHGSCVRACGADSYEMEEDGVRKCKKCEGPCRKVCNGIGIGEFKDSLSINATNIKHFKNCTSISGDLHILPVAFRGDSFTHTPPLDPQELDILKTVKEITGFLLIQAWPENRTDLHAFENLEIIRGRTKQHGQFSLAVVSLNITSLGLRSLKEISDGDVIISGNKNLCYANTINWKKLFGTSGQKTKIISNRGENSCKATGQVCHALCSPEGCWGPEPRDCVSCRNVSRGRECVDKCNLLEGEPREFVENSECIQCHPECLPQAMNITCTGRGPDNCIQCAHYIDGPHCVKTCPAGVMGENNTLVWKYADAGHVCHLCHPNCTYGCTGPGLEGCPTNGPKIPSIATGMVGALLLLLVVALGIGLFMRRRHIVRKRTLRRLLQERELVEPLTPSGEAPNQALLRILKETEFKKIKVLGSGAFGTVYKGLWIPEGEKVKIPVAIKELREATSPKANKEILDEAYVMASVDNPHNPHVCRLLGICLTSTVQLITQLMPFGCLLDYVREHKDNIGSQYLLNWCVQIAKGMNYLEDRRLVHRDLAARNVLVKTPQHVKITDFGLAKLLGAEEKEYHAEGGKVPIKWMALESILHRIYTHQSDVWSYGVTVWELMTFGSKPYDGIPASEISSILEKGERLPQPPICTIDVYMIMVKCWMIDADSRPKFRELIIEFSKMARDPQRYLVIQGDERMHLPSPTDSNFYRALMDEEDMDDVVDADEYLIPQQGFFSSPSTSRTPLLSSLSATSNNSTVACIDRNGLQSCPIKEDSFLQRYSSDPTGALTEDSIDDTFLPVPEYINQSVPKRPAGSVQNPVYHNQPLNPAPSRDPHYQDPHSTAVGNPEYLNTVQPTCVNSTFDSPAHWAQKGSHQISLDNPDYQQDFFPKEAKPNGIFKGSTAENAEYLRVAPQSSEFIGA

Ba/F3 EGFR ASV ins cells = assay: Cell proliferation, Ba/F3 EGFR ASV ins (CellTiter-Glo, 72 h); assay type: cell-based; details: Ba/F3 EGFR, 72 h;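 further: IL3-independent Ba/F3 cells transduced with EGFR V769_D770insASV, cellular ATP luminescence after compound exposure, growth relative to DMSO control with the day-0 baseline reading subtracted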
[2] = In vitro rat hepatocytes clearance assay; details: male, rat, cryopreserved rat hepatocytes (suspension), rat hepatocytes Clint (µL/min/10^6cells), 1 µM-range incubation up to 100 min
Protocol: The protocol for rat/human hepatocytes metabolic stability assay is employed to determine the clearance of the compounds of the present disclosure in vitro.
Rat hepatocytes in male gender and human hepatocytes in mixed gender were obtained from commercial vendors (e.g., BioreclamationIVT) and stored at -150° C. prior to use. 10 mM stock solutions of tested compounds were prepared in DMSO. Thawing medium and supplement incubation medium (serum-free) were placed in a 37° C. water bath for at least 15 minutes prior to use. Stock solutions were diluted to 100 µM by combining 198 µL acetonitrile and 2 µL of 10 mM stock solution.
Vials of cryopreserved hepatocytes were removed from storage, ensured that vials remain at cryogenic temperatures. The vials were thawed in a 37° C. water bath with gently shaking. Vials were kept in water bath until all ice crystals had dissolved and were no longer visible. Vials were sprayed with 70% ethanol before being transferred to a biosafety cabinet. And then the contents were poured into the 50 mL thawing medium conical tube. Vials were centrifuged at 100 g for 10 minutes at room temperature.
Cell viability and density were counted using a Trypan Blue exclusion, and then cells were diluted with serum-free incubation medium to a working cell density of 1 × 10^6 viable cells/ml. […] The inactivated hepatocytes were used to prepare negative samples, which were used to exclude the misleading factor that resulted from instability of chemical itself.
Aliquots of 247.5 µL hepatocytes were dispensed into each well of a 96-well non-coated plate. The plate was placed in the incubator on an orbital shaker for approximately 10 minutes. Aliquots of 2.5 µL of the 100 µM test compounds were added into respective wells of the non-coated 96-well plate to start the reaction. This assay was performed in duplicate. The plate was incubated in the incubator on an orbital shaker for the designed time points. […] Samples were centrifuges for 20 minutes at 4000 g and aliquots of 100 µL of the supernatants were used for LC-MS/MS analysis for measurement of test compounds
In vitro hepatocyte clearance was estimated based on determination of elimination half-life (T½) of compounds disappearance from their initial concentrations. Peak area ratios of each compound (test or control) to IS was calculated. Ln (%Control) versus Incubation Time (min) curve was plotted, and the slope of a linear fitting line was calculated.

WT EGFR = biological target: T2, WT EGFR (Homo sapiens, UniProt P00533); assay: WT EGFR cellular phosphorylation inhibition in A-431 (hEGF stimulated, MSD); assay type: cell-based; details: A431 cells, 4 h compound, then 100 ng/ml hEGF 10 min;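 further: electrochemiluminescence read-out of EGFR Tyr1068 phosphorylation expressed as ratio to total EGFR, cells kept in medium with 1% FBS, compounds tested as a concentration series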
T2 construct: host or cells: A-431
T2 sequence (P00533 25-1210): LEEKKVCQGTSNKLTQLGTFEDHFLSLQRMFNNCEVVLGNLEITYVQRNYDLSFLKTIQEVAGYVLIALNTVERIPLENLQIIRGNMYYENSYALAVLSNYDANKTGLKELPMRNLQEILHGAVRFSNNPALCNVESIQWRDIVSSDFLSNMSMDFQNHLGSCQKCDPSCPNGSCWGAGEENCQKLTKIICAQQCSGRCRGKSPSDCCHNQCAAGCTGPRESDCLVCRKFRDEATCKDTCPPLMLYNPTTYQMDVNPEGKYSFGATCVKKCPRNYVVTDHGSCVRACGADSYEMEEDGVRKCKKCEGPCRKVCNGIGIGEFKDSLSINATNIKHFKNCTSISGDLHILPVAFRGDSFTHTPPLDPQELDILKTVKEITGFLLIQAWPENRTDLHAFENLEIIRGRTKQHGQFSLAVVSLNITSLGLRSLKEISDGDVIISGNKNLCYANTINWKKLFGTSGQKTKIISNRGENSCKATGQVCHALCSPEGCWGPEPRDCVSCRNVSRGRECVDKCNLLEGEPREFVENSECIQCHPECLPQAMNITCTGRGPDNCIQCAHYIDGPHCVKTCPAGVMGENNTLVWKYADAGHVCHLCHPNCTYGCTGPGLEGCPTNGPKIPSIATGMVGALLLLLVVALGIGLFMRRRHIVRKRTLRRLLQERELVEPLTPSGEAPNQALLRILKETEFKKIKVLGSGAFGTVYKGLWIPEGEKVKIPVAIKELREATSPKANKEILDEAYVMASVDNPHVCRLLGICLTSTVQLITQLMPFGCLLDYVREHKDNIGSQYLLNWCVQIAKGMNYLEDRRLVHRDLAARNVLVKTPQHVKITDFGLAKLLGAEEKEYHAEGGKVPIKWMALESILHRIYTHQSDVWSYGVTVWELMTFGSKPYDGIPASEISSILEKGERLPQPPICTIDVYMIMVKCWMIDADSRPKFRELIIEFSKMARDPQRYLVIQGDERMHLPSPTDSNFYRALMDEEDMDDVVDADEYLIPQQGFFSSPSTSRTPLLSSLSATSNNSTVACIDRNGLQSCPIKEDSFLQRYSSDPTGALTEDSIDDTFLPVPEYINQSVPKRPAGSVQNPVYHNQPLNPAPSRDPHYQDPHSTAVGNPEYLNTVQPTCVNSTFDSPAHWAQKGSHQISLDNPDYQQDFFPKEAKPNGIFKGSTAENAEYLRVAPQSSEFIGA

WT EGFR cell line A-431 = assay: Cell proliferation, WT EGFR A431 (CellTiter-Glo, 72 h); assay type: cell-based; details: Homo sapiens, A-431, 72 h;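 further: proliferation from a luminescent ATP viability signal, expressed as 100 × (treated minus time-zero plate) over (DMSO control minus time-zero plate), cells grown with 10% FBS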
EGFR L858R&T790M = biological target: T3, EGFR L858R&T790M (Homo sapiens, UniProt P00533, L858R/T790M); assay: EGFR L858R and T790M cellular phosphorylation inhibition in NCI-H1975 (MSD); assay type: cell-based; details: NCI-H1975 cells, 4 h compound, p-EGFR(Y1068)/total EGFR; read-out: EGFR L858R and T790M mutation IC50;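 further: phosphorylated and total EGFR detected by electrochemiluminescence, cells exposed to compound in medium containing 1% FBS at 37 °C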
T3 construct: host or cells: NCI-H1975
Protocol: One day before the test, WT or mutant cells were seeded in 96 well plates at appropriate concentrations with corresponding growth media supplemented with 1% FBS, and incubated overnight. The next day, tested compounds at a series of concentrations were added into each individual well of the plates, and the plates were incubated for 4 h at 37° C. with 5% CO2.
The EGFR (Y1068) phosphorylation level (activity) of cells in each well were then measured with MSD kit named “MULTI-SPOT®96 4-Spot HB Prototype EGFR Triplex [sequence]: pEGFR(Tyr1068),pEGFR(Tyr1173), Total EGFR” according to the manufacturer’s instruction (MESO SCALE DISCOVERY, Cat# N45ZB-1). The assay is an electrochemiluminescent method for determining both phosphorylated and total EGFR of cells with an MSD SECTOR® Imager and the ratio of p-EGFR/total EGFR can be generated by the machine. The Her2 (Y1248) phosphorylation level (activity) of cells in each well were measured with MSD Kit named “Phospho-ErbB2 (Tyr1248) Assay Whole Cell Lysate Kit” according to the manufacturer’s instruction (MESO SCALE DISCOVERY, Cat# K151CLD-3). The assay is an electrochemiluminescent method (MESO SCALE DISCOVERY) for determining both phosphorylated and total Her2 of cells with an MSD SECTOR® Imager and then the ratio of p-Her2/total Her2 can be generated by the machine.

[3] = biological target: T4, human EGFR exon 20 V769_D770insASV (Homo sapiens, UniProt P00533, INS769ASV); assay: EGFR Exon20 ASV insertion cellular phosphorylation inhibition (MSD pEGFR Y1068/total EGFR); assay type: cell-based; details: Ba/F3 EGFR ASV ins cells, 4 h compound, p-EGFR(Y1068)/total EGFR;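 further: electrochemiluminescent readout on an MSD SECTOR Imager, IL3-independent transduced cells in medium with 1% FBS, compound concentration series at 37 °C and 5% CO2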
T4 construct: expressed in transfected cells; host or cells: Ba/F3 (DSMZ ACC-300), lentiviral transduction, puromycin selection, IL3 depletion
T4 sequence (P00533 with tags, fused parts or gaps INS769ASV): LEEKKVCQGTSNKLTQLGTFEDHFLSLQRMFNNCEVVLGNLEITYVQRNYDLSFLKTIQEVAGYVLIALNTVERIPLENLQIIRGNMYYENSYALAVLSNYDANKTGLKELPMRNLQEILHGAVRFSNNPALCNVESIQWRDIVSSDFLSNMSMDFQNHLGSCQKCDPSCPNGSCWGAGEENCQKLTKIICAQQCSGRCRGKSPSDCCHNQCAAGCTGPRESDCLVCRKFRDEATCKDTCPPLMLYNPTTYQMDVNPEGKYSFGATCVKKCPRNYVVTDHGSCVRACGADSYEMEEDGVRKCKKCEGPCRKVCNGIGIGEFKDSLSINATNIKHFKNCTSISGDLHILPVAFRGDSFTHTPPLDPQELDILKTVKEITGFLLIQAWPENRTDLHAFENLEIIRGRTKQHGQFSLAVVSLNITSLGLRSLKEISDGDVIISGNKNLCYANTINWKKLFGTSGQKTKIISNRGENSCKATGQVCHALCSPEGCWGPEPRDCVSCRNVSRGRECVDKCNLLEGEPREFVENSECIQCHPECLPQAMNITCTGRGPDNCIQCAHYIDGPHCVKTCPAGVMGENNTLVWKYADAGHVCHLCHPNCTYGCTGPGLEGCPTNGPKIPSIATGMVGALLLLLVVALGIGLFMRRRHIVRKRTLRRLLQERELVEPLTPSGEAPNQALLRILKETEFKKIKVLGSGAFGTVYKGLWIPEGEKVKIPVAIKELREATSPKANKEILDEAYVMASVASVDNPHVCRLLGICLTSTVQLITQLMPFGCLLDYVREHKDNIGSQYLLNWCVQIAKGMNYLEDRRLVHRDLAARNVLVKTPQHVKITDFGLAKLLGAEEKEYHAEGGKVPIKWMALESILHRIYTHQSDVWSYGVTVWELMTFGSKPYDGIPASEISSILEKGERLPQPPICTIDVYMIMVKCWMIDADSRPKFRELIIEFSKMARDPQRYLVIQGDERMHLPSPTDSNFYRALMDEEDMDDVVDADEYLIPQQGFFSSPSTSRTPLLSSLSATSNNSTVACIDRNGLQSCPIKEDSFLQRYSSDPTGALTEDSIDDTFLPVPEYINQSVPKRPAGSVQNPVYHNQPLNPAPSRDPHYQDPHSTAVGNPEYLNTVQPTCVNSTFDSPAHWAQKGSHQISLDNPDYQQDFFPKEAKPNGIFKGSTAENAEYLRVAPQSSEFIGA

[4] = biological target: T5, human Her2 exon 20 insertion mutation YVMA (Homo sapiens, UniProt P04626, INS775YVMA); assay: Her2 Exon 20 YVMA insertion cellular phosphorylation inhibition (MSD p-Her2 Y1248/total Her2); assay type: cell-based; details: Her2 YVMAins cells, 4 h compound;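 further: lentivirally transduced NIH-3T3 cells in 1% FBS medium, electrochemiluminescent MSD read-out, graded compound concentrations at 37 °C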
T5 construct: expressed in transfected cells; host or cells: NIH-3T3, lentiviral transduction, puromycin selection
T5 sequence (P04626 with tags, fused parts or gaps INS775YVMA): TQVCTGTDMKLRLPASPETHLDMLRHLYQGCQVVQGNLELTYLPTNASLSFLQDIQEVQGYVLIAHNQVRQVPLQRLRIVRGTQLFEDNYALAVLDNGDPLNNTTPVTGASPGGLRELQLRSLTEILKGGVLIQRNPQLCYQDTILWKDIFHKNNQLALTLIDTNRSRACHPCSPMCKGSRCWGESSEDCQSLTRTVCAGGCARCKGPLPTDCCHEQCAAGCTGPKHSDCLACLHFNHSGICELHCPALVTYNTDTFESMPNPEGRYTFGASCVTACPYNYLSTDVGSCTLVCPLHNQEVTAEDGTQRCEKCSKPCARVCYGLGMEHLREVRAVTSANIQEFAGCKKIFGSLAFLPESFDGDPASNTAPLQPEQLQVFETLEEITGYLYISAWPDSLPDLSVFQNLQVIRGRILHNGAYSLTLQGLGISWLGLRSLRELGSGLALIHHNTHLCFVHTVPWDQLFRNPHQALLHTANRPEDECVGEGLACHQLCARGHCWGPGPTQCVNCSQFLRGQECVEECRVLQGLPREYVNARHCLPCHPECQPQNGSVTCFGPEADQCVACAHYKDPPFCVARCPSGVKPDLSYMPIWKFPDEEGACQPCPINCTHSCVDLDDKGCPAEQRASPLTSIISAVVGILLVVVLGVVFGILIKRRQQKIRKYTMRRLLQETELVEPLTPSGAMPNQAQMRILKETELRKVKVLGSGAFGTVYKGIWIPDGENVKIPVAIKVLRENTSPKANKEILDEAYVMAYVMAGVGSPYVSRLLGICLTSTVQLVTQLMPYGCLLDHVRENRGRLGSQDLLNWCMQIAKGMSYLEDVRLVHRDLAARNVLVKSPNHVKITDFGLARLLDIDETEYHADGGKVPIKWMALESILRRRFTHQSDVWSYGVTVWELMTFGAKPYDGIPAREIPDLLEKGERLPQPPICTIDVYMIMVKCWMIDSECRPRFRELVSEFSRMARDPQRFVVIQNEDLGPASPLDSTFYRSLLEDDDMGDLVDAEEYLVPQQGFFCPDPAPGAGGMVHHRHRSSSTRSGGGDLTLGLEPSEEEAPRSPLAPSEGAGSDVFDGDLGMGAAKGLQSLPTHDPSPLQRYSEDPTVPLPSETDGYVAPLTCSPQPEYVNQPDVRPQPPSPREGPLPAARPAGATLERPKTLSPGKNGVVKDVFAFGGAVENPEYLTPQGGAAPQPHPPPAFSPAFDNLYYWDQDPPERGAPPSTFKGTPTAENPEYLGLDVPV

[5] = system: NCI-H1975 EGFR L858R/T790M cells; assay: Cell proliferation, NCI-H1975 EGFR L858R/T790M (CellTiter-Glo, 72 h); assay type: cell-based; details: Homo sapiens, NCI-H1975, 72 h;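 further: viable cells quantified by luciferase-based ATP luminescence, proliferation expressed relative to DMSO-treated wells (100%) after subtracting a parallel plate read at the time of dosing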
Ba/F3 EGFR NPH ins cells = assay: Cell proliferation, Ba/F3 EGFR NPH ins (CellTiter-Glo, 72 h); assay type: cell-based; details: Ba/F3 EGFR, 72 h;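 further: IL3-independent cells carrying constitutively phosphorylated EGFR, compound dilution series, viable cells quantified by ATP luminescence, growth relative to DMSO wells after subtracting pre-dosing (day 0) baseline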
[6] = In vitro human hepatocytes clearance assay; details: both, human, cryopreserved human hepatocytes (suspension), human hepatocytes Clint (µL/min/10^6cells), mixed gender human hepatocytes, incubation up to 100 min
[7] = system: Her2 exon 20 insertion YVMA transduced NIH-3T3 cell line; assay: Cell proliferation, Her2 YVMAins NIH-3T3 (CellTiter-Glo, 72 h); assay type: cell-based; details: Mus musculus, NIH3T3, 72 h, Her2 YVMAins cells, 72 h proliferation; read-out: Her2 Exon 20 YVMA insertion GI50;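 further: viable cells quantified by ATP luminescence, growth over a day-zero baseline plate expressed as percent of DMSO control growth, compound dilution series in 10% FBS medium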
OCI-LY-10 cells = assay: BTK (wt) cell proliferation, OCI-LY-10 (CellTiter-Glo, 72 h); assay type: cell-based; details: Homo sapiens, OCI-Ly10, 72 h, OCI-LY-10 cells, 72 h, CellTiter-Glo; read-out: BTK WT OCI-LY-10 GI50;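 further: viable cells quantified via cellular ATP luminescence, proliferation given as percent of DMSO control after subtracting a duplicate plate read at time of dosing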
DB cells = assay: BTK (wt) cell proliferation, DB (CellTiter-Glo, 72 h); assay type: cell-based; details: Homo sapiens, DB, DB cells, CellTiter-Glo, read-out: Non-BCR activated DB GI50;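 further: DB cells in 384-well plates given a dilution series of compound, viable cells read by ATP luminescence, growth expressed versus DMSO control after subtracting a time-zero plate reading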
Ri-1 cells = assay: BTK (wt) cell proliferation, Ri-1 (CellTiter-Glo, 72 h); assay type: cell-based; details: Ri-1, 72 h, Ri-1 cells, 72 h, CellTiter-Glo; read-out: BTK WT Ri-1 GI50;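 further: viable cells quantified as cellular ATP luminescence, proliferation normalized to a time-zero plate and the DMSO control, compounds tested across a dilution series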
TMD-8 cells = assay: BTK (wt) cell proliferation, TMD-8 (CellTiter-Glo, 72 h); assay type: cell-based; details: Homo sapiens, TMD8, 72 h, TMD-8 cells, 72 h, CellTiter-Glo; read-out: BTK WT TMD-8 GI50;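 further: viable cells quantified by ATP-based luminescence, proliferation expressed as percent of DMSO control after subtracting a time-zero baseline plate read at dosing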
[8] = Ba/F3 EGFR ASV ins, 72 h proliferation, read-out: EGFR Exon20 ASV insertion GI50
[9] = A431, 72 h proliferation, read-out: EGFR WT A431 GI50
[10] = NCI-H1975, 72 h proliferation, read-out: EGFR L858R and T790M mutation GI50
[11] = Ba/F3 EGFR NPH ins, 72 h proliferation, read-out: EGFR Exon20 NPH insertion GI50
[12] = read-out: EGFR Exon20 ASV insertion GI50 (nM)
[13] = read-out: EGFR WT A431 GI50 (nM)
[14] = read-out: EGFR L858R and T790M mutation GI50 (nM)
[15] = read-out: EGFR Exon20 NPH insertion GI50 (nM)

| IC50 [1] [nM] | GI50 (Ba/F3 EGFR ASV ins cells; [8]) [nM] | hepatocyte CLint at 1 µM [2] [µL/min/1e6 cells] | IC50 (WT EGFR) [nM] | GI50 (WT EGFR cell line A-431; [9]) [nM] | IC50 (EGFR L858R&T790M) [nM] | IC50 [3] [nM] | IC50 [4] [nM] | GI50 [5, 10] [nM] | GI50 (Ba/F3 EGFR NPH ins cells; [11]) [nM] | GI50 (OCI-LY-10 cells) [nM] | SMILES | hepatocyte CLint at 1 µM [6] [µL/min/1e6 cells] | GI50 [7] [nM] | GI50 (DB cells) [nM] | GI50 (Ri-1 cells) [nM] | GI50 (TMD-8 cells) [nM] | GI50 (Ba/F3 EGFR ASV ins cells; [12]) [nM] | GI50 (WT EGFR cell line A-431; [13]) [nM] | GI50 [5, 14] [nM] | GI50 (Ba/F3 EGFR NPH ins cells; [15]) [nM] |
| --- | --- | --- | --- | --- | --- | --- | --- | --- | --- | --- | --- | --- | --- | --- | --- | --- | --- | --- | --- | --- |
| 11.2 | 26.5 | 78.4 | 12.2 | 12 | 0.4 | 8.7 | 5.5 | 2.7 | 26.5 |  | [2H]C([2H])([2H])N(CCN(C)c1cc(OC)c(Nc2ncnc(Nc3cc(F)c(F)cc3C(C)(C)O)n2)cc1NC(=O)C=C)C([2H])([2H])[2H] [Compound 22, N-(2-((2-(bis(methyl-d3)amino)ethyl)(methyl)amino)-5-((4-((4,5-difluoro-2-(2-hydroxypropan-2-yl)phenyl)amino)-1,3,5-triazin-2-yl)amino)-4-methoxyphenyl) acrylamide] | 9.78 | 44.4 |  |  |  |  |  |  |  |
|  | 37.8 | > 300 |  | 41.6 |  |  | 5.3 | 1.6 | 42.7 | 6.41 | C=CC(=O)Nc1cc(Nc2nccc(Nc3cc(Cl)c(F)cc3C(C)(C)O)n2)c(OC)cc1N(C)CCN(C)C [Compound 36, (N-(5-(4-(5-chloro-4-fluoro-2-(2-hydroxypropan-2-yl)phenylamino)pyrimidin-2-ylamino)-2-((2-(dimethylamino)ethyl)(methyl)amino)-4-methoxyphenyl)acrylamide)] | 10.3 | 75.2 | 881 | 8.2 | 8.32 |  |  |  |  |
| 26.2 | 69.6 |  | 183 | 31.5 | 1.5 | 41.2 | 22.5 | 2.2 | 64.6 | 86.8 | C=CC(=O)Nc1cc(Nc2nccc(Nc3cc(Cl)c(F)cc3C(C)(C)O)n2)c(OC)cc1N1C[C@@H](C)C[C@@H]1CN(C)C [Compound 91, N-(5-(4-(5-chloro-4-fluoro-2-(2-hydroxypropan-2-yl)phenylamino)pyrimidin-2-ylamino)-2-((2R,4S)-2-((dimethylamino)methyl)-4-methylpyrrolidin-l-yl)-4-methoxyphenyl) acrylamide] | 8.57 | 148 | > 3000 | 79.4 | 58 |  |  |  |  |
| 28.5 | 80.9 |  | 28.9 | 16.5 | 0.7 | 17.7 | 4.4 | 6.4 | 94.9 | 21.6 | C=CC(=O)Nc1cc(Nc2ncnc(Nc3ccc4[nH]ccc4c3C(C)(C)O)n2)c(OC)cc1N(C)CCN(C)C [Compound 94, N-(2-((2-(dimethylamino)ethyl)(methyl)amino)-5-(4-(4-(2-hydroxypropan-2-yl)-1H-indol-5-ylamino)-1,3,5-triazin-2-ylamino)-4-methoxyphenyl)acrylamide] |  | 141 | > 3000 | 209 | 94.8 |  |  |  |  |
| 7.1 | 16 |  | 3.5 | 2.9 | 0.3 | 6.2 | 2.2 | 3.7 | 20.5 | 0.29 | C=CC(=O)Nc1cc(Nc2ncnc(Nc3cc4cc[nH]c4cc3C(C)(C)O)n2)c(OC)cc1N(C)CCN(C)C [Compound 95, N-(2-((2-(dimethylamino)ethyl)(methyl)amino)-5-(4-(6-(2-hydroxypropan-2-yl)-1H-indol-5-ylamino)-1,3,5-triazin-2-ylamino)-4-methoxyphenyl)acrylamide] |  | 15.8 | > 3000 | 971 | 1.16 |  |  |  |  |

| SMILES | IC50 [1] [nM] | GI50 (Ba/F3 EGFR ASV ins cells; [8]) [nM] | hepatocyte CLint at 1 µM [2] [µL/min/1e6 cells] | IC50 (WT EGFR) [nM] | GI50 (WT EGFR cell line A-431; [9]) [nM] | IC50 (EGFR L858R&T790M) [nM] | IC50 [3] [nM] | IC50 [4] [nM] | GI50 [5, 10] [nM] | GI50 (Ba/F3 EGFR NPH ins cells; [11]) [nM] | GI50 (OCI-LY-10 cells) [nM] | hepatocyte CLint at 1 µM [6] [µL/min/1e6 cells] | GI50 [7] [nM] | GI50 (DB cells) [nM] | GI50 (Ri-1 cells) [nM] | GI50 (TMD-8 cells) [nM] | GI50 (Ba/F3 EGFR ASV ins cells; [12]) [nM] | GI50 (WT EGFR cell line A-431; [13]) [nM] | GI50 [5, 14] [nM] | GI50 (Ba/F3 EGFR NPH ins cells; [15]) [nM] |
| --- | --- | --- | --- | --- | --- | --- | --- | --- | --- | --- | --- | --- | --- | --- | --- | --- | --- | --- | --- | --- |
| C=CC(=O)Nc1cc(Nc2nccc(Nc3cc(Cl)c(F)cc3C(C)(C)O)n2)c(OC)cc1N1C[C@H]2CN(C)[C@H]2C1 [Compound 89, N-(5-(4-(5-chloro-4-fluoro-2-(2-hydroxypropan-2-yl)phenylamino)pyrimidin-2-ylamino)-4-methoxy-2-((1R,5R)-6-methyl-3,6-diazabicyclo[3.2.0]heptan-3-yl)phenyl)acrylamide formic acid salt] | 14.8 |  |  | 148 |  | 0.7 | 23 | 6.8 |  |  | 11.4 | 3.84 | 158 | > 3000 | 17.5 | 9.86 | 115 | 63.1 | 2.8 | 63.8 |
| C=CC(=O)Nc1cc(Nc2nccc(Nc3cc(Cl)c(F)cc3C(C)(C)O)n2)c(OC)cc1N1C[C@@H]2CN(C)[C@@H]2C1 [Compound 97, N-(5-(4-(5-chloro-4-fluoro-2-(2-hydroxypropan-2-yl)phenylamino)pyrimidin-2-ylamino)-4-methoxy-2-((1 S,5 S)-6-methyl-3,6-diazabicyclo[3.2.0]heptan-3-yl)phenyl)acrylamide formic acid salt] | 17.4 |  |  | 160 |  | 0.7 | 14.4 | 2.8 |  |  | 24 | 4.25 | 93.9 | > 3000 | 54.7 | 18.6 | 86.7 | 38 | 3.4 | 74.2 |
| C=CC(=O)Nc1cc(Nc2nccc(Nc3cc(Cl)c(F)cc3C(C)(C)O)n2)c(OC)cc1N1CCC[C@@H]1CN1CCC1 [Compound 98, (R)-N-(2-(2-(azetidin-1-ylmethyl)pyrrolidin-1-yl)-5-(4-(5-chloro-4-fluoro-2-(2-hydroxypropan-2-yl)phenylamino)pyrimidin-2-ylamino)-4-methoxyphenyl) acrylamide formic acid salt] | 19.1 |  |  | 190 |  | 0.9 | 21.4 | 3.1 |  |  | 115 | 7.6 | 135 | > 3000 | 108 | 71.5 | 129 | 87.8 | 3.1 | 112 |
